The record followed here is ChEMBL document CHEMBL3217568, “trans-Stilbenoids: potent and selective inhibitors for human cytochrome P450 1B1” (Medchemcomm, 2011).

pIC50, pKi: −log10 of the molar value.

Assay [1] is filed under the species Homo sapiens. Nature of the assay: Selectivity ratio of IC50 for human CYP1A1 to IC50 for human CYP1B1.
The species entered for assay [2] is Homo sapiens. Nature of the assay: Selectivity ratio of IC50 for human CYP1A2 to IC50 for human CYP1B1.
Another assay has as its target T1, Cytochrome P450 1A2 (Homo sapiens, UniProt P05177).
T1 sequence (P05177 whole entry): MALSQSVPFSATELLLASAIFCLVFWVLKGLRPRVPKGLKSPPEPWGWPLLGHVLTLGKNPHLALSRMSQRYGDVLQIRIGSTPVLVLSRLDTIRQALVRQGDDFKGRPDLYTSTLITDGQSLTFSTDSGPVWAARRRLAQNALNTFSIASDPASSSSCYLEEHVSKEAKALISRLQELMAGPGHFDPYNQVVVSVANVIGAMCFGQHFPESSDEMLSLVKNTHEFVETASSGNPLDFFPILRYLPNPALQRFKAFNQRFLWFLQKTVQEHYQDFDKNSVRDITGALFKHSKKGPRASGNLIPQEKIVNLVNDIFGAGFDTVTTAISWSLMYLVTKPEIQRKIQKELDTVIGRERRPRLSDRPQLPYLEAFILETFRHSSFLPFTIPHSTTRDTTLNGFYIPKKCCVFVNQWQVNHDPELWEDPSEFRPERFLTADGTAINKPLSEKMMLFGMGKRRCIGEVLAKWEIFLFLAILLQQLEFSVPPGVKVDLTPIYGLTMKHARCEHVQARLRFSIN
As to the kind of experiment: Inhibition of human CYP1A2 expressed in Escherichia coli assessed as changes in ethoxyresorufin O-deethylation activity after 3 mins by spectrofluorometer analysis. The format is ADME.

Assay [3] addresses T2, Cytochrome P450 1B1 (Homo sapiens, UniProt Q16678).
T2 sequence (Q16678 whole entry): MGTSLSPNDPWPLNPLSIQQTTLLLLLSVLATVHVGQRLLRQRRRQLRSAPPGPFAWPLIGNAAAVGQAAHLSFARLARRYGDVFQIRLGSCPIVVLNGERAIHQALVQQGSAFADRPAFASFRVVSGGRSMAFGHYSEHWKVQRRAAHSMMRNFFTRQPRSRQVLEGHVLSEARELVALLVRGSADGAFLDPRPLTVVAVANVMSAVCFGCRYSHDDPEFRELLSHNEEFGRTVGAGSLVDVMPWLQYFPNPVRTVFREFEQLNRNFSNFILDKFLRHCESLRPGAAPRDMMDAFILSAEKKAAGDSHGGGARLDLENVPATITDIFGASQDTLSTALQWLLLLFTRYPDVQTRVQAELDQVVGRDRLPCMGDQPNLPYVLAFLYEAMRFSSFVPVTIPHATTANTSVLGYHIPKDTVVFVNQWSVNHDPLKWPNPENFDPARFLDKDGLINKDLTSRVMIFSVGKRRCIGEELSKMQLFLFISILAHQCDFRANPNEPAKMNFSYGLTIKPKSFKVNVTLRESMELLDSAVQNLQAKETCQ
Nature of the assay: Inhibition of human CYP1B1 expressed in Escherichia coli assessed as changes in ethoxyresorufin O-deethylation activity after 3 mins by spectrofluorometer analysis.

In assay [4] the target is T3, Cytochrome P450 1A1 (Homo sapiens, UniProt P04798).
T3 sequence (P04798 whole entry): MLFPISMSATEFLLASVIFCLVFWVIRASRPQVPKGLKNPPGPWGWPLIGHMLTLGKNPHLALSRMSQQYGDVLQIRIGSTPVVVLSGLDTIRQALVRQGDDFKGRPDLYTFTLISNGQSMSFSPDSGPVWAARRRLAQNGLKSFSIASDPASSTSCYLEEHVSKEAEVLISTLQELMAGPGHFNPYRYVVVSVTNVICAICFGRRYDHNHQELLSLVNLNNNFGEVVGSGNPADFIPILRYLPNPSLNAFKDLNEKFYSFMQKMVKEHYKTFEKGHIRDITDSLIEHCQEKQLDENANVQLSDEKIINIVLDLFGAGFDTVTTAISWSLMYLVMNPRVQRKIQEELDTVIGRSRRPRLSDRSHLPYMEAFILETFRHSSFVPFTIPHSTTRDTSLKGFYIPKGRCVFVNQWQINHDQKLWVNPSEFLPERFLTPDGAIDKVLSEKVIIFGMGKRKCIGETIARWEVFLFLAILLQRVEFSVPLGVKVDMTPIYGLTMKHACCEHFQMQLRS
Nature of the assay: Inhibition of human CYP1A1 expressed in Escherichia coli assessed as changes in ethoxyresorufin O-deethylation activity after 3 mins by spectrofluorometer analysis. The format is ADME.

The target in assay [5] is T2, Cytochrome P450 1B1. Nature of the assay: Inhibition of CYP1B1 (unknown origin).
For assay [6], the target named is T3, Cytochrome P450 1A1. Nature of the assay: Inhibition of CYP1A1 (unknown origin). The format is ADME.

Turning to `COc1ccc(/C=C/c2c(OC)cc(OC)cc2OC)c(OC)c1`, the Ratio IC50 in the assay filed under Homo sapiens [1] is 30; in the assay filed under Homo sapiens [2] it was 38. The pIC50 (usually −log10 of the IC50, conventionally taken in molar units) at Cytochrome P450 1A2 was 6.73; on Cytochrome P450 1B1 [3] it was 8.31; on Cytochrome P450 1A1 [4] it was 6.83.
The corresponding values for `COc1ccc(/C=C/c2ccc(OC)c(OC)c2)c(OC)c1` are 4.6, 8.1, 6.47, 7.38 and 6.72.
In the case of `COc1ccc(/C=C/c2cccc(OC)c2OC)c(OC)c1`, the Ratio IC50 in the assay filed under Homo sapiens [1] was determined as 3.2; in the assay listed under Homo sapiens [2], 4.1. Besides, the values for the pIC50 on Cytochrome P450 1A2, at Cytochrome P450 1B1 [3] and on Cytochrome P450 1A1 [4] were 6.61, 7.22 and 6.72, respectively.
The corresponding values for `COc1ccc(/C=C/c2cc(OC)c(OC)cc2OC)c(OC)c1` are 14, 43, 6.63, 8.26 and 7.11.
`COc1cccc(/C=C/c2ccc(OC)cc2OC)c1`: the values for the Ratio IC50 in the assay filed under Homo sapiens [1] and in the assay listed under Homo sapiens [2] were 6.5 and 59, respectively. For the same molecule, the pIC50 on Cytochrome P450 1A2 is 6.04; at Cytochrome P450 1B1 [3], 7.82; at Cytochrome P450 1A1 [4], 7.01.
The corresponding values for `COc1ccc(OC)c(/C=C/c2ccc(OC)cc2OC)c1` are 100, 86, 6.52, 8.45 and 6.46.
As for `COc1cc(O)cc(/C=C/c2ccc(O)cc2)c1`, the pKi (in general, −log10 of the Ki, conventionally taken in molar units) on Cytochrome P450 1B1 [5] was 6.05; on Cytochrome P450 1A1 [6] it was 6.92.
The matching figures for `COc1ccc(/C=C/c2cc(O)cc(O)c2)cc1` [RESVERATROL 4'-METHYL ETHER]: 5.68 and 6.80.
Take `COc1ccc(/C=C/c2c(OC)ccc(OC)c2OC)c(OC)c1`: the Ratio IC50 in the assay filed under Homo sapiens [1] is 127; in the assay listed under Homo sapiens [2] it was 526. The pIC50 on Cytochrome P450 1A2 was 5.76; on Cytochrome P450 1B1 [3], 8.48; at Cytochrome P450 1A1 [4], 6.38.
As to `COc1ccc(/C=C/c2ccccc2OC)c(OC)c1`, the Ratio IC50 in the assay listed under Homo sapiens [1] was found to be 22; in the assay filed under Homo sapiens [2], 51. The pIC50 on Cytochrome P450 1A2 was 6.10; at Cytochrome P450 1B1 [3], 7.81; on Cytochrome P450 1A1 [4], 6.47.
Take `COc1cc(/C=C/c2ccc(O)cc2)cc(OC)c1` [PTEROSTILBENE]: the negative logarithm of the Ki (pKi) was 6.05 at Cytochrome P450 1B1 [5] and 6.24 on Cytochrome P450 1A1 [6].
Consider `COc1ccc(/C=C/c2ccc(OC)cc2OC)c(OC)c1`, for which the figures for the Ratio IC50 in the assay listed under Homo sapiens [1] and in the assay listed under Homo sapiens [2] were 25 and 23, respectively. Besides, the pIC50 was 6.69 on Cytochrome P450 1A2, 8.06 on Cytochrome P450 1B1 [3] and 6.65 on Cytochrome P450 1A1 [4].
Take `COc1ccc(/C=C/c2c(OC)cccc2OC)c(OC)c1`: the Ratio IC50 was found to be 194 in the assay listed under Homo sapiens [1] and 95 in the assay filed under Homo sapiens [2]. The pIC50 at Cytochrome P450 1A2 was 6.77; on Cytochrome P450 1B1 [3], 8.75; on Cytochrome P450 1A1 [4], 6.46.
The matching figures for `COc1ccc(/C=C/c2cc(OC)c(OC)c(OC)c2)c(OC)c1`: 4.2, 66, 5.33, 7.15 and 6.52.
The corresponding values for `COc1ccc(/C=C/c2ccccc2)c(OC)c1` are 20, 13, 6.49, 7.60 and 6.31.
The matching figures for `COc1ccc(/C=C/c2ccc(OC)cc2OC)cc1`: 12, 18, 5.97, 7.24 and 6.18.
